Results: patent US9302999B2, “Substituted triazoles as herbicides” (E. I. DU PONT DE NEMOURS AND COMPANY, priority 2012, dated 2016)

Legend:
Format in all cases: in vivo
[1] = system: oilseed rape (Brassica napus); assay: Test D pre-/postemergence: oilseed rape
How it was run: (§1)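 Visual 0–100 rating versus untreated controls (0 no effect, 100 complete control), taken 14 to 21 days after treatment in a controlled growth environment. Preemergence: silt loam soil. Postemergence: peat moss/vermiculite medium, plants 2 to 18 cm, 1- to 4-leaf stage. Solvent mixture with surfactant.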

[2] = system: kochia (Kochia scoparia); assay: Test D pre-/postemergence: kochia
How it was run: as §1

[3] = system: bermudagrass (Cynodon dactylon); assay: Test C pre-/postemergence: bermudagrass
How it was run: (§2)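 Preemergence on seeds in loam/sand, postemergence on 2–18 cm (1–4-leaf) plants in peat-based medium; compounds in non-phytotoxic solvent with surfactant. After 13–15 days in greenhouse, visual rating versus controls, 0 (no effect) to 100 (complete control).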

[4] = system: ducksalad (Heteranthera limosa); assay: Test C flooded paddy test: ducksalad; conditions: Heteranthera limosa, scale 0 to 100 (0 no effect, 100 complete control), read-out: Plant response rating, Ducksalad
How it was run: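 Plants were grown to the 2-leaf stage, pots flooded to 3 cm above soil, and test compounds applied directly to the paddy water, with that depth held throughout. After 13 to 15 days in a greenhouse, injury was visually rated against controls on a 0 (no effect) to 100 (complete control) scale.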

[5] = system: foxtail, green (green foxtail, Setaria viridis); assay: Test D pre-/postemergence: foxtail, green
How it was run: as §1

[6] = system: Russian thistle (Salsola kali); assay: Test C pre-/postemergence: Russian thistle; conditions: Preemergence
How it was run: as §2

[7] = system: barley, winter (winter barley, Hordeum vulgare); assay: Test D pre-/postemergence: barley, winter
How it was run: as §1

[8] = system: pigweed (Amaranthus retroflexus); assay: Test D pre-/postemergence: pigweed
How it was run: as §1

[9] = Postemergence, 31 g ai/ha, scale 0 to 100 (0 no effect, 100 complete control)
[10] = Postemergence, 62 g ai/ha, scale 0 to 100 (0 no effect, 100 complete control)
[11] = Postemergence, 125 g ai/ha, scale 0 to 100, 0 no effect, 100 complete control
[12] = Postemergence, 250 g ai/ha, scale 0 to 100 (0 no effect, 100 complete control)
[13] = Postemergence, 16 g ai/ha, scale 0 to 100
[14] = Preemergence, 16 g ai/ha, scale 0 to 100 (0 no effect, 100 complete control)
[15] = Preemergence, 31 g ai/ha, scale 0 to 100 (0 no effect, 100 complete control)
[16] = Preemergence, 62 g ai/ha, scale 0 to 100
[17] = Preemergence, 125 g ai/ha, scale 0 to 100
[18] = Preemergence, 250 g ai/ha, scale 0 to 100
[19] = Postemergence, 250 g ai/ha, scale 0 to 100
[20] = Preemergence, 125 g ai/ha, scale 0 to 100, 0 no effect, 100 complete control
[21] = Preemergence, 250 g ai/ha, scale 0 to 100, 0 no effect, 100 complete control
[22] = 62 g ai/ha, scale of 0 to 100, 0 is no effect, 100 is complete control
[23] = 125 g ai/ha, scale 0 to 100, 0 no effect, 100 complete control
[24] = 250 g ai/ha, scale 0 to 100, 0 no effect, 100 complete control

Cc1nn(-c2ccc(F)cc2)nc1Cc1ccnc(C(F)(F)F)c1 [Compound 16, 4-[[2-(4-fluorophenyl)-5-methyl-2H-1,2,3-triazol-4-yl]methyl]-2-(trifluoromethyl)pyridine]
Plant response rating: Oilseed Rape [1, 9]: 70 | Plant response rating: Oilseed Rape [1, 10]: 95 | Plant response rating: Oilseed Rape [1, 11]: 100 | Plant response rating: Oilseed Rape [1, 12]: 100 | Plant response rating, Oilseed Rape [1, 13]: 40 | Plant response rating, Oilseed Rape [1, 14]: 0 | Plant response rating, Oilseed Rape [1, 15]: 0 | Plant response rating, Oilseed Rape [1, 16]: 50 | Plant response rating, Oilseed Rape [1, 17]: 50 | Plant response rating, Oilseed Rape [1, 18]: 100 | Plant response rating: Kochia [2, 9]: 90 | Plant response rating: Kochia [2, 10]: 95 | Plant response rating: Kochia [2, 11]: 75 | Plant response rating: Kochia [2, 12]: 95 | Plant response rating, Kochia [2, 13]: 85 | Plant response rating, Kochia [2, 14]: 30 | Plant response rating, Kochia [2, 15]: 30 | Plant response rating, Kochia [2, 16]: 90 | Plant response rating, Kochia [2, 17]: 90 | Plant response rating, Kochia [2, 18]: 100 | Plant response rating, Bermudagrass [3, 9]: 5 | Plant response rating, Bermudagrass [3, 10]: 5 | Plant response rating, Bermudagrass [3, 11]: 15 | Plant response rating, Bermudagrass [3, 19]: 65 | Plant response rating, Bermudagrass ([3]; Preemergence, 31 g ai/ha, scale of 0 to 100, 0 is no effect, 100 is complete control): 5 | Plant response rating, Bermudagrass ([3]; Preemergence, 62 g ai/ha, scale 0 to 100, 0 no effect, 100 complete control): 25 | Plant response rating, Bermudagrass [3, 20]: 75 | Plant response rating, Bermudagrass [3, 21]: 75 | pest or weed control at 62 g/ha ([4]; Flood (flooded paddy test), 62 g ai/ha, visual rating after 13 to 15 days): 85% | pest or weed control at 125 g/ha ([4]; Flood (flooded paddy test), 125 g ai/ha, visual rating after 13 to 15 days): 95% | pest or weed control at 250 g/ha ([4]; Flood (flooded paddy test), 250 g ai/ha, visual rating after 13 to 15 days): 100% | pest or weed control at 31 g/ha ([4]; Flood, 31 g ai/ha): 70% | Plant response rating: Foxtail, Green [5, 9]: 30 | Plant response rating: Foxtail, Green [5, 10]: 80 | Plant response rating: Foxtail, Green [5, 11]: 90 | Plant response rating: Foxtail, Green [5, 12]: 95 | Plant response rating, Foxtail, Green [5, 13]: 30 | Plant response rating, Foxtail, Green [5, 14]: 25 | Plant response rating, Foxtail, Green [5, 15]: 100 | Plant response rating, Foxtail, Green [5, 16]: 100 | Plant response rating, Foxtail, Green [5, 17]: 100 | Plant response rating, Foxtail, Green [5, 18]: 100 | Plant response rating, Russian Thistle ([6]; 31 g ai/ha, scale of 0 to 100, 0 is no effect, 100 is complete control): 45 | Plant response rating, Russian Thistle [6, 22]: 100 | Plant response rating, Russian Thistle [6, 23]: 100 | Plant response rating, Russian Thistle [6, 24]: 100 | Plant response rating: Barley, Winter [7, 9]: 10 | Plant response rating: Barley, Winter [7, 10]: 10 | Plant response rating: Barley, Winter [7, 11]: 25 | Plant response rating: Barley, Winter [7, 12]: 40 | Plant response rating, Barley, Winter [7, 13]: 5 | Plant response rating, Barley, Winter [7, 14]: 0 | Plant response rating, Barley, Winter [7, 15]: 0 | Plant response rating, Barley, Winter [7, 16]: 5 | Plant response rating, Barley, Winter [7, 17]: 10 | Plant response rating, Barley, Winter [7, 18]: 25 | Plant response rating: Pigweed [8, 9]: 70 | Plant response rating: Pigweed [8, 10]: 80 | Plant response rating: Pigweed [8, 11]: 90 | Plant response rating: Pigweed [8, 12]: 100 | Plant response rating, Pigweed [8, 13]: 50 | Plant response rating, Pigweed [8, 14]: 25 | Plant response rating, Pigweed [8, 15]: 80 | Plant response rating, Pigweed [8, 16]: 80 | Plant response rating, Pigweed [8, 17]: 90 | Plant response rating, Pigweed [8, 18]: 100

CCOc1nn(-c2ccc(F)cc2)nc1Cc1ccnc(C(F)F)c1 [Compound 195]
Plant response rating: Oilseed Rape [1, 9]: 85 | Plant response rating: Oilseed Rape [1, 10]: 95 | Plant response rating: Oilseed Rape [1, 11]: 100 | Plant response rating: Oilseed Rape [1, 12]: 100 | Plant response rating, Oilseed Rape [1, 13]: 70 | Plant response rating, Oilseed Rape [1, 14]: 0 | Plant response rating, Oilseed Rape [1, 15]: 0 | Plant response rating, Oilseed Rape [1, 16]: 0 | Plant response rating, Oilseed Rape [1, 17]: 10 | Plant response rating, Oilseed Rape [1, 18]: 20 | Plant response rating: Kochia [2, 9]: 85 | Plant response rating: Kochia [2, 10]: 95 | Plant response rating: Kochia [2, 11]: 100 | Plant response rating: Kochia [2, 12]: 100 | Plant response rating, Kochia [2, 13]: 70 | Plant response rating, Kochia [2, 14]: 40 | Plant response rating, Kochia [2, 15]: 50 | Plant response rating, Kochia [2, 16]: 60 | Plant response rating, Kochia [2, 17]: 80 | Plant response rating, Kochia [2, 18]: 85 | Plant response rating, Bermudagrass [3, 9]: 40 | Plant response rating, Bermudagrass [3, 10]: 60 | Plant response rating, Bermudagrass [3, 11]: 90 | Plant response rating, Bermudagrass [3, 19]: 95 | Plant response rating, Bermudagrass ([3]; Preemergence, 31 g ai/ha, scale 0 (no effect) to 100 (complete control)): 98 | Plant response rating, Bermudagrass ([3]; Preemergence, 62 g ai/ha, scale of 0 to 100, 0 is no effect, 100 is complete control): 98 | Plant response rating, Bermudagrass [3, 20]: 98 | Plant response rating, Bermudagrass [3, 21]: 98 | Plant response rating: Foxtail, Green [5, 9]: 50 | Plant response rating: Foxtail, Green [5, 10]: 75 | Plant response rating: Foxtail, Green [5, 11]: 100 | Plant response rating: Foxtail, Green [5, 12]: 100 | Plant response rating, Foxtail, Green [5, 13]: 30 | Plant response rating, Foxtail, Green [5, 14]: 15 | Plant response rating, Foxtail, Green [5, 15]: 90 | Plant response rating, Foxtail, Green [5, 16]: 100 | Plant response rating, Foxtail, Green [5, 17]: 100 | Plant response rating, Foxtail, Green [5, 18]: 100 | Plant response rating, Russian Thistle ([6]; 31 g ai/ha, scale 0 (no effect) to 100 (complete control)): 90 | Plant response rating, Russian Thistle [6, 22]: 90 | Plant response rating, Russian Thistle [6, 23]: 90 | Plant response rating, Russian Thistle [6, 24]: 90 | Plant response rating: Barley, Winter [7, 9]: 10 | Plant response rating: Barley, Winter [7, 10]: 15 | Plant response rating: Barley, Winter [7, 11]: 30 | Plant response rating: Barley, Winter [7, 12]: 45 | Plant response rating, Barley, Winter [7, 13]: 0 | Plant response rating, Barley, Winter [7, 14]: 0 | Plant response rating, Barley, Winter [7, 15]: 0 | Plant response rating, Barley, Winter [7, 16]: 0 | Plant response rating, Barley, Winter [7, 17]: 0 | Plant response rating, Barley, Winter [7, 18]: 20 | Plant response rating: Pigweed [8, 9]: 65 | Plant response rating: Pigweed [8, 10]: 75 | Plant response rating: Pigweed [8, 11]: 80 | Plant response rating: Pigweed [8, 12]: 95 | Plant response rating, Pigweed [8, 13]: 60 | Plant response rating, Pigweed [8, 14]: 60 | Plant response rating, Pigweed [8, 15]: 60 | Plant response rating, Pigweed [8, 16]: 60 | Plant response rating, Pigweed [8, 17]: 100 | Plant response rating, Pigweed [8, 18]: 95
